Reference: publication PMC4849654, “A High-Throughput Cell-Based Screen Identified a 2-[(E)-2-Phenylvinyl]-8-Quinolinol Core Structure That Activates p53” (PLoS ONE, 2016)

Key:
[1] = target: T1, E6AP (Homo sapiens, UniProt Q05086); assay: Surface plasmon resonance binding to E6AP; settings: SPR, data not shown
T1 sequence (Q05086 1-875): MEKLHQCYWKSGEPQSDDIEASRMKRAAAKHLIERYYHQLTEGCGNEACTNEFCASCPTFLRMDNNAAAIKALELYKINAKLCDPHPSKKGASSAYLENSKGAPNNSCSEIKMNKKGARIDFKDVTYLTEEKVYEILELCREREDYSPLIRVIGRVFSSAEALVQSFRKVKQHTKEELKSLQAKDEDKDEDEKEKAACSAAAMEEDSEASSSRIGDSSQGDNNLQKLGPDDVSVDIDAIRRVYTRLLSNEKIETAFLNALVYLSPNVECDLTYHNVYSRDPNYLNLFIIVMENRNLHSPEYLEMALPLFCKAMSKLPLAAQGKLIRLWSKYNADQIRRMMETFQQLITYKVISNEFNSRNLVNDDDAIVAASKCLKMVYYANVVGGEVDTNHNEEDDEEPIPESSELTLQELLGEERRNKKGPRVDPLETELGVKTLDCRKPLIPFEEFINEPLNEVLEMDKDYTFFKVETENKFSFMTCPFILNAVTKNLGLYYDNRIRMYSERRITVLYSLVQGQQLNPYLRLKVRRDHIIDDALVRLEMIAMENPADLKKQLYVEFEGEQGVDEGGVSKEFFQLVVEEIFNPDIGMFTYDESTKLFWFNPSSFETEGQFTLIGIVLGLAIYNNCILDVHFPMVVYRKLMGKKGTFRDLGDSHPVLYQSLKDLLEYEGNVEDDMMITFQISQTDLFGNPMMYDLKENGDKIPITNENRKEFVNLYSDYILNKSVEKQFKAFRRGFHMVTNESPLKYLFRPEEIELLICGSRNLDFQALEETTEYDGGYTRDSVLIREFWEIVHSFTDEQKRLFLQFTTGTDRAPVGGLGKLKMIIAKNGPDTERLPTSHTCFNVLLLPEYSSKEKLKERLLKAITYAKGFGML
Description: Free reactive amines were then blocked with ethanolamine.

[2] = target: T2, p53 (Homo sapiens, UniProt P04637, R273C); assay: Nuclear/cytoplasmic fractionation and Western analysis of p53; format: cell-based; settings: C33a cells, 6 hrs, Western
T2 construct: endogenous in cells; host or cells: C33a
Protocol: For nuclear/cytoplasmic fractionation, 1 × 10^7 C33a cells were treated with 30 μM compound for 6 hrs. The cells were washed with PBS and lysed in 1000 μL of cytoplasmic extraction buffer (10 mM KCl, 10 mM HEPES, pH 7.9, 0.1 mM EDTA, 1 mM dithiothreitol) and incubated on ice for 20 min. 50 μL of 10% NP-40 was added to each lysate, vortexed and then centrifuged at 12,000 × g for 10 min. The cytosolic fraction was collected and the pellet containing the nuclei suspended in 50 μL of nuclear extraction buffer (0.4 M NaCl, 20 mM HEPES, pH 7.9, 1 mM EDTA). The nuclear fraction was incubated for 30 min on ice. The samples were spun at 14,000 × g for 10 min and the supernatants were collected. To concentrate the cytoplasmic fraction, 500 μL methanol, and 200 μL chloroform were added and the samples were vortexed, centrifuged for 10 min at 14,000 × g, and the upper and lower layer were discarded. The solid interphase was collected and suspended in 50 μL of lysis buffer. Equal cell equivalents were loaded on a gel and electrophoresed. For whole cell lysates, C33a cells were lysed with a modified RIPA buffer and subjected to SDS-PAGE electrophoresis. The gels were transferred to nitrocellulose and blots probed with antibodies for p53 (Santa Cruz, antibody FL-303), lamin A/C, and calnexin (Santa Cruz Biotechnology).

[3] = system: PUMA; assay: PUMA transcription by qRT-PCR; format: cell-based; settings: 30 μM, 8h
Description: (§1) RNA from C33a and HeLa was isolated by Trizol and reverse transcribed using the first strand synthesis kit from NEB. Primers for p53, GAPDH and PUMA were used for quantitative real-time PCR (qRT-PCR). Primer sequences include: PUMA (forward primer: CTCAACGCACAGTACGAG and reverse primer: […]), FAS (forward primer: TCTGCCATAAGCCCTGT and reverse primer: GTCTGTGTACTCCTTCCCT), p21 (forward primer: […] and reverse primer: […]), and BAX (forward primer: […] and reverse primer: […]). ΔΔCt values were determined for PUMA using GAPDH to normalize data. Bio-rad SYBR green was used for the amplification and detection of the PCR products on an iCycler (Bio-rad).

[4] = system: p21, BAX and FAS; assay: p53 target gene expression (p21, BAX, FAS) by qRT-PCR; format: cell-based; settings: HeLa cells, 8h
Description: as §1

[5] = system: C33a cells; assay: Cell viability (Cell Titer Glo), C33a; format: cell-based
Protocol: (§2) For the viability assays, 20,000 C33a, HeLa, or siHA cells were plated in white 96 well flat bottom plates. The cells were treated with compounds at concentrations from 0.5 to 30 μM for 48 hrs. After incubation, Cell Titer Glo (Promega) was added to the cells and luminescence read in a Tecan II plate reader. For annexin V and PI staining, 500,000 C33a cells were treated with inhibitor for 24 hrs. The cells were stained with Annexin V-FITC and PI according to eBioscience manufacturer’s instructions and analyzed by flow cytometry.

[6] = system: MCF7 cells; assay: Cell viability, MCF7; format: cell-based; settings: MCF7, wild type p53
[7] = system: C33a cells; assay: Annexin V/PI staining by flow cytometry; format: cell-based
Protocol: as §2

How did the “affinity for E6AP” value [1] turn out when `COc1ccc(/C=C/c2ccc3cccc(O)c3n2)cc1OC` [compound 4] was run?
The value was “did not have detectable affinity”.

What about the “nuclear accumulation of p53 in nuclear fraction compared to vehicle” value [2] of the same compound?
Its value is “higher levels of nuclear accumulation of p53”.

What about the PUMA transcription upregulation ([3]; C33a cells) of the same compound?
Its PUMA transcription upregulation is 2.76±0.29 fold.

What about the PUMA transcription upregulation ([3]; HeLa cells) of the same compound?
The PUMA transcription upregulation was 2.04±0.85 fold.

And the “expression of p21, BAX and FAS” value [4]?
The value was “induced expression”.

What about the IC50 ([5]; C33a cells, 48 hrs, Cell Titer Glo) of the same compound?
The IC50 was 2300 nM.

What about the “cell viability at 30 μM” value ([5]; C33a, 30 μM, 48h) of the same compound?
Its value is “decreased viability”.

What about the “cell viability (Fig 5D)” value ([5]; C33a, mutant p53) of the same compound?
Its value is “decreased viability”.

What about the “cell viability (Fig 5D)” value [6] of the same compound?
The value was “decreased viability”.

And the “apoptotic and necrotic cells” value [7]?
The value was “increased both the number of apoptotic and necrotic cells”.
